According to patent US9023835B2, “Agent for ameliorating blood-brain barrier disorders” (Nagasaki University, priority 2009, dated 2015):

Key:
[1] = test system: photoinduced middle cerebral artery thrombosis (PIT) model mice; test: Photoinduced middle cerebral artery thrombosis (PIT) model mice: infarction region volume, motor function; type: in vivo, C57BL/J6 mice; details: for infarction (infarction region volume): after 24 hours of ischemia, solvent 48%; for motor function evaluation (inability to keep the posture and leaning or loss of spontaneous movement): 24 hours after ischemia, ProTα 100 μg/kg, ProTα30 1 mg/kg, ProTα9 0.1-1 mg/kg
Procedure: The left middle cerebral artery of a C57BL/J6 mouse was exposed under the dura, and the photosensitizing dye rose bengal was administered at 30 mg/kg into a caudal vein, after which green light with a given wavelength was irradiated to the middle cerebral artery for 10 minutes to produce a thrombus, and induce infarction with this thrombus. One hour after light irradiation, vehicle, ProTα (100 μg/kg), ProTα30 (1 mg/kg), or ProTα9 (0.1 mg/kg, 0.3 mg/kg and 1 mg/kg) was administered to a caudal vein. Next, after 24 hours of ischemia, infarction region volume was measured to evaluate the motor function in the same manner as the above.

[2] = test system: cerebral ischemia model mice (left middle cerebral artery infarction, reperfusion); test: Tomato lectin staining of cerebral microvessels (blood-brain barrier disorder) in transient cerebral ischemia model mice; type: in vivo, C57BL/J6 mice; details: for tomato lectin signal (microvessel length) on the ipsilateral-to-ischemia side, cerebrocortical sensation region: 1 h MCAO, i.v. 1 h after reperfusion, ProTα 100 μg/kg, ProTα30 1 mg/kg, ProTα9 0.3 mg/kg, C-term 0.3 mg/kg; for suppression of cerebrovascular collapse (tomato lectin staining, cortex and striatum): Example 4, same experiment as Example 1, ProTα vs ProTα30
Procedure: Five minutes later, the whole body was perfused and fixed with para-formaldehyde (PFA); the brain was extracted and further treated with 4% PFA at room temperature for 3 hours. Thereafter, the brain was placed in 25% sucrose solution and allowed to stand at 4° C. overnight. The brain was freeze-embedded in the OCT compound, and a 50 μm-thick section was prepared on a plane including the cerebral cortex sensory area S1 (CS1) or S2 (CS2), bonded onto a silane-coated glass slide, and dried on a heater overnight. Thereafter, using Alexa Fluor488-labeled streptavidin (diluted 300 fold with 2% BSA/PBST), fluorescent staining of tomato lectin was performed, after which the specimen was fixed with the fluorescent antifading agent Fluoromount (Japan Tanner Corporation), and allowed to stand in the dark overnight, then examined using the LSM5 PASCAL confocal laser microscope (Carl Zeiss). Fluorescent signals were cumulatively analyzed for total fluorescence in an approximately 30 μm range by the deconvolution method.
After 0.5 hours of middle cerebral artery obstruction (MCAO), reperfusion was performed; 1 hour later, tomato lectin staining in the CS2 region was observed as a signal of approximately 30 μm length on the contralateral-to-ischemia side (the scale bar is 100 μm, ×20 objective lens).
The same experiment as that shown in Example 1 was performed using ProTα and the active form ProTα30, and the effects thereof were comparatively analyzed.
Furthermore, fluorescent staining of tomato lectin was performed in the same manner as in Example 1, and microvessels were analyzed.
When reperfusion was performed after 1 hour of middle cerebral artery occlusion (MCAO), tomato lectin staining of the cerebrocortical sensation region was observed as a signal roughly 30 μm long on the contralateral-to-ischemia side (Contra).

[3] = test system: transient cerebral ischemia model mice; test: Transient cerebral ischemia model mice: infarction region volume (TTC), clinical score, survival rate; details: for infarction region suppressing effect: 0.3 mg/kg i.v.; for infarction (infarction region volume, TTC): 24 h later, solvent alone 48%; for infarction (infarction region volume): solvent 48%
Procedure: Cerebral ischemia model mice generated by infarcting the left middle cerebral arteries of C57BL/J6 mice were maintained for 1 hour, and then reperfusion was performed. One hour after the reperfusion, a vehicle or ProTα30 (10 μg) was intracerebroventricularly administered (i.c.v.); the mice were examined over time every 24 hours to evaluate the motor function and survival rate. Also, clinical scores indicating movement disorders subsequent to left middle cerebral artery infarction were evaluated according to the rating system of 1: unable to completely extend the right forelimb, 2: rightward turning behavior, 3: unable to keep the posture and leans in the rightward direction, 4: loss of spontaneous movement, 5: death.
Meanwhile, 1 hour after ischemia and reperfusion, ProTα30 (0 μg (Veh), 0.1 μg or 10 μg) was intracerebroventricularly administered; the whole brain, extracted 24 hours thereafter was treated with 2% TTC (2,3,5-Triphenyltetrazolium chloride) staining solution in solution in PBS, and washed with PBS, after which five coronary sections of 1 mm thickness were taken with coverage of 2 mm anteriorly and 3 mm posteriorly from the bregma. […] The cerebral infarction region was evaluated according to the equation below. […] All volume on the ipsilateral side refers to the entire infarcted and non-infarcted regions on the ischemized side as divided on the median line, whereas all volume on the contralateral side refers to the entire region on the non-ischemized side.

[4] = test system: permanent cerebral ischemia model mice; test: Permanent cerebral ischemia model mice: infarction region volume, clinical score, survival rate; details: no reperfusion, 24 h later, solvent 60%
Procedure: To permanent cerebral ischemia model mice generated by infarcting the middle cerebral arteries of C57BL/J6 mice, ProTα30 was intravenously administered (i.v.), without reperfusion, 2 hours and 4 hours after the start of ischemia. Next, 24 hours later, in the same manner as the above, infarction region volume was measured.
To permanent cerebral ischemia model mice generated by infarcting the middle cerebral arteries of C57BL/J6 mice, ProTα was administered into a caudal vein at 100 μg/kg, without reperfusion, 2, 7, or 12 hours after the start of ischemia. Next, in the same manner as the above, infarction region volume was measured. […] In the same mice, motor function was evaluated. Clinical scores indicating motor function disorders were evaluated in the same manner as Example 5.
Meanwhile, a vehicle or ProTα (100 μg) was administered into a caudal vein (i.v.) 2 and 4 hours after the start of ischemia, and the mice were examined over time every 24 hours to evaluate the motor function and survival rate.

[5] = test system: permanent cerebral ischemia model rats; test: Permanent cerebral ischemia model rats: infarction region volume, clinical score, survival rate
Procedure: To permanent cerebral ischemia model rats generated by infarcting the middle cerebral arteries of Sprague-Dawley rats, ProTα was administered into a caudal vein (i.v.), without reperfusion, 4 hours after the start of ischemia. Next, 24 hours later, infarction region volume was measured in the same manner as the above.
Furthermore, rats were examined over time every 24 hours to evaluate the motor function and survival rate.

[6] = 1 mg/kg caudal vein 1 hour after light irradiation

| Substance | infarction injury region, dose dependence ([1]; 0.1 mg/kg, 0.3 mg/kg and 1 mg/kg caudal vein) | infarction (infarction region volume) [1, 6] [%] | motor function evaluation (inability to keep the posture and leaning or loss of spontaneous movement) [1] | tomato lectin signal (microvessel length) on the ipsilateral-to-ischemia side, cerebrocortical sensation region [2] | infarction region suppressing effect [3] | suppression of cerebrovascular collapse (tomato lectin staining, cortex and striatum) [2] | infarction (infarction region volume, TTC) ([3]; 0.1 μg i.c.v. 1 h after reperfusion) [%] | infarction (infarction region volume, TTC) ([3]; 10 μg i.c.v. 1 h after reperfusion) [%] | motor function evaluation (clinical score) ([3]; 10 μg i.c.v., loss of spontaneous movement 3 days after ischemia and reperfusion) | clinical scores (hemiparalysis of degree 3) ([3]; 0.275 mg/kg i.v.) | infarction (infarction region volume) ([3]; 0.275 mg/kg i.v. once 1 hour after reperfusion) [%] | clinical scores (hemiparalysis of degree 3) ([3]; 1 mg/kg i.v.) | infarction (infarction region volume) ([3]; 1 mg/kg i.v. once 1 hour after reperfusion) [%] | survival rate ([3]; mouse, in vivo) | infarction (infarction region volume) ([4]; 1 mg/kg i.v. once, 2 hours after infarction) [%] | infarction (infarction region volume) ([4]; i.v. twice, at 2 hours and 4 hours) [%] | infarction (infarction region volume) ([1]; 100 μg/kg caudal vein 1 hour after infarction) [%] | survival rate ([5]; 100 μg caudal vein, about 2 weeks later, non-dosing group 50% one day after ischemia) | infarction (infarction region volume) ([5]; 100 μg/kg i.v. 4 hours after infarction, 24 h later, solvent 40%) [%] | cerebrovascular destruction in the CS2 and striata on the ischemized side (tomato lectin staining) ([2]; 0.1 mg/kg i.v. 1 hour after reperfusion, examined 24 hours after reperfusion) |
| --- | --- | --- | --- | --- | --- | --- | --- | --- | --- | --- | --- | --- | --- | --- | --- | --- | --- | --- | --- | --- |
| ProTα9: polypeptide consisting of the 52nd amino acid to the 60th amino acid of rat prothymosin α, EVDEEEEEG (SEQ ID NO:6) (consensus amino acid sequence) | decreased in a dose-dependent fashion | 30 | significantly ameliorated | longer signals | cerebral infarction region suppressing effect | – | – | – | – | – | – | – | – | – | – | – | – | – | – | – |
| ProTα30: polypeptide consisting of the 49th amino acid to the 78th amino acid of rat prothymosin α (SEQ ID NO:4) (ADNEVDEEEEEGGEEEEEEEEGDGEEEDGD; consensus amino acid sequence) | – | 30 | significantly ameliorated | longer signals | cerebral infarction region suppressing effect | suppressing cerebrovascular collapse | 44 | 38 | significantly ameliorated | no effect was observed | 39 | ameliorated significantly | 13 | about 80% | 34 | 27 | – | – | – | – |
| prothymosin α (SDAAVDTSSEITTKDLKEKKEVVEEAEN; UniProt P26350 2-29, looked up) [ProTα, known protein] | – | – | significantly ameliorated | longer signals | – | suppressing cerebrovascular collapse | – | – | – | – | – | – | – | – | – | – | 23 | about 75% | 25 | disappeared nearly completely |
| C-term: C-end of ProTα, amino acid sequence TKKQKKTDEDD (SEQ ID NO: 50) [reference compound] | – | – | – | observed only as a fragment | – | – | – | – | – | – | – | – | – | – | – | – | – | – | – | – |
